Our source for the Ki values is US20100016366A1, “Novel Compounds Active as Muscarinic Receptor Antagonists” (priority 2008, published 2010).

The target of assay [1] is T1, human muscarinic M3 receptor (Homo sapiens, UniProt P20309).
T1 construct: expressed in transfected cells; host or cells: CHO (CHO-K1) cells
Description: hM3 competition binding assay (3H-NMS, CHO cell membranes). The note with it: CHO cell membranes expressing human M3; 3H-NMS at 5×KD, 24 hr at RT; IC50 corrected by Cheng-Prussoff. The protocol:
Binding Affinity Assessment at the Human Recombinant M3 Muscarinic Receptor
Cell Pellets from CHO (Chinese Hamster Ovary) cells recombinantly expressing the human muscarinic M3 receptor were homogenised in 20 mM HEPES (pH7.4) and centrifuged at 48000×g for 20 min at 4° C. The pellet was re-suspended in buffer and the homogenisation and centrifugation steps repeated. The resulting pellet was re-suspended in 1 ml buffer per 1 ml original packed cell volume and the homogenisation step repeated. Protein estimation was carried out on the suspension and 1 ml aliquots of ˜1 mg/ml frozen at −80° C.
hM3 Competition Binding Assay Protocol
Membranes (5 µg/well) were incubated with ^3H-NMS (at a concentration 5×KD) plus/minus test compound for 24 hr at RT (room temperature) in a 1 ml polystyrene 96-well deep well block. The final assay volume was 200 µl, comprising of: 20 µl plus/minus test compound; 20 µl ^3H-NMS (Perkin Elmer NEN 636) and 160 µl membrane solution. Total Binding was defined with 0.1% DMSO; Non-Specific Binding was defined with 1 µM Atropine. Assay buffer was 20 mM Hepes (pH 7.4).
Once all assay components were added, plates were covered and incubated at room temperature for 24 hrs with shaking. The assay was terminated by rapidly filtering through GF/B Unifilter plates pre-soaked with 0.5% polyethylenimine, using a Packard filtermate harvester, the filter plate was then washed with 3×1 ml 4° C. assay buffer. The filter plates were dried at 45° C. for 1 hour. The bottoms of the filter plates were sealed and 50 µl/well of Microscint ‘0’ added, the top of the plates were sealed with a Topseal. Following 90 mins, the plates were read on an NXT Topcount (1 minute read time per well).
The resulting data was expressed as a percentage of the specific binding (Specific binding=Total binding−Non-Specific Binding). % specific binding versus test compound concentration was plotted to determine an IC50 from a sigmoid curve using an in-house data analysis programme. IC50 values corrected to Ki values by applying the Cheng-Prussoff equation: […]
where IC50 is the concentration of unlabelled drug which inhibits by 50% the specific radioligand binding. [L] is the free radioligand concentrations and KD and Ki are the equilibrium dissociation constants of the radioligand and unlabelled drug respectively.

Assay [2] addresses T1, human muscarinic M3 receptor. Description: Cell based potency assessment, hM3 β-lactamase assay (CHO cell β-lactamase). The settings on record: CHO cells recombinantly expressing human M3, NFAT-β-lactamase reporter; inhibition of 80 nM carbamyl choline signal, 4 h; IC50 converted by Cheng-Prusoff. The protocol: Cell BASED POTENCY ASSESSMENT at the Human Recombinant M3 Muscarinic Receptor
M3 potency was determined in CHO-K1 cells transfected with the NFAT-Betalactamase gene. CHO (Chinese Hamster Ovary) cells recombinantly expressing the human muscarinic M3 receptor were transfected with the NFAT_β-Lac_Zeo plasmid. Cells were grown in DMEM with Glutamax-1, supplemented with 25 mM HEPES (Life Technologies 32430-027), containing 10% FCS (Foetal Calf Serum; Sigma F-7524), […] Sodium pyruvate (Sigma S-8636), NEAA (non-Essential Amino Acids; Invitrogen 11140-035) and 200 μg/ml Zeocin (Invitrogen R250-01).
hM3 β-Lactamase Assay Protocol
Cells were harvested for assay when they reached 80-90% confluency using enzyme free cell Dissociation Solution (Life technologies 13151-014) incubated with the cells for 5 min at 37° C. in an atmosphere containing 5% CO2. Detached cells were collected in warmed growth media and centrifuged at 2000 rpm for 10 min, washed in PBS (Phosphate Buffered Saline; Life Technologies 14190-094) and centrifuged again as just described. The cells were re-suspended at 2×10^5 cells/ml in growth medium (composition as described above). 20 μl of this cell suspension was added to each well of a 384 well black clear bottomed plate (Greiner Bio One 781091-PFI). The assay buffer used was PBS supplemented with 0.05% Pluronic F-127 (Sigma 9003-11-6) and 2.5% DMSO. Muscarinic M3 receptor signalling was stimulated using 80 nM carbamyl choline (Aldrich N240-9) incubated with the cells for 4 h at 37° C./5% CO2 and monitored at the end of the incubation period using a Tecan SpectraFluor+plate reader (λ−excitation 405 nm, emission 450 nm and 503 nm). M3 receptor antagonists under test were added to the assay at the beginning of the 4 h incubation period and compound activity measured as the concentration dependent inhibition of the carbamyl choline induced signal. Inhibition curves were plotted and IC50 values generated using a 4-parameter sigmoid fit and converted to Ki values using the Cheng-Prusoff correction and the KD value for carbamyl choline in the assay.

T1 sequence (P20309 whole entry): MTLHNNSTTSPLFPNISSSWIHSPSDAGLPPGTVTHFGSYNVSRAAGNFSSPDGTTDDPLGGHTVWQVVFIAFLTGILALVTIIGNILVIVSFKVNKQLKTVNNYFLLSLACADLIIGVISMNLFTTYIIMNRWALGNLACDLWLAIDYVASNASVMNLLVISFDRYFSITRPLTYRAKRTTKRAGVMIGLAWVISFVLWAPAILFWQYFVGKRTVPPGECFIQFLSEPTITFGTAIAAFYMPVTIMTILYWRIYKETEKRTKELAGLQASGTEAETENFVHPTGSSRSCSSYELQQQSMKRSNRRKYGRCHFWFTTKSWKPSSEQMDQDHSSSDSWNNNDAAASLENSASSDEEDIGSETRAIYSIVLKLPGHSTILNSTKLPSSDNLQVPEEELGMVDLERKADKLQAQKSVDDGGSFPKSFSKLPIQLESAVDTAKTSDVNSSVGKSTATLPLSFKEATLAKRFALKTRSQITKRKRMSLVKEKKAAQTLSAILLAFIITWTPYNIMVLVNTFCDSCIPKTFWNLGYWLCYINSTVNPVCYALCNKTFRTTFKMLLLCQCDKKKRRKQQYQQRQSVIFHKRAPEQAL

As to `O=C(Nc1ccccc1-c1ccccc1)OC1CCN(CCCCCCCCCNC(=O)c2cc(Cl)c(O)c(Cl)c2)CC1` [Example 25, Biphenyl-2-yl-carbamic acid 1-[9-(4-hydroxy-3,5-dichloro-benzoylamino)-nonyl]-piperidin-4-yl ester], the inhibitory constant (Ki) worked out at 4.34 nM in assay [1] and 0.854 nM in assay [2].
On the same counts, the results for `O=C(Nc1ccccc1-c1ccccc1)OC1CCN(CCCCCCCCCNCc2cc(F)c(Cl)cc2O)CC1` [Example 33, Biphenyl-2-yl-carbamic acid 1-[9-(2-hydroxy-4-chloro-5-fluoro-benzylamino)-nonyl]-piperidin-4-yl ester] are 6.04 nM and 2.72 nM.
As for `CN(CCCCCCCCCN1CCC(OC(=O)Nc2ccccc2-c2ccccc2)CC1)C(=O)Cc1ccc(O)c(F)c1` [Example 18, Biphenyl-2-yl-carbamic acid 1-(9-{[2-(3-fluoro-4-hydroxy-phenyl)-acetyl]-methyl-amino}-nonyl)-piperidin-4-yl ester], the inhibition constant Ki in assay [1] turned out to be 2.29 nM; in assay [2], 0.353 nM.
On the same counts, the results for `O=C(Cc1ccc(O)c(Cl)c1)NCCCCCCCCCN1CCC(OC(=O)Nc2ccccc2-c2ccccc2)CC1` [Example 4, Biphenyl-2-yl-carbamic acid 1-{9-[2-(3-chloro-4-hydroxy-phenyl)-acetylamino]-nonyl}-piperidin-4-yl ester] are 1.19 nM and 0.0415 nM.
On the same counts, the results for `O=C(Nc1ccccc1-c1ccccc1)OC1CCN(CCCCCCCCCNCc2ccc(F)c(O)c2)CC1` [Example 36, Biphenyl-2-yl-carbamic acid 1-[9-(3-hydroxy-4-fluoro-benzylamino)-nonyl]-piperidin-4-yl ester] are 0.235 nM and 2.24 nM.
On the same counts, the results for `O=C(Nc1ccccc1-c1ccccc1)OC1CCN(CCCCCCCCCNCc2cccc(F)c2O)CC1` [Example 30, Biphenyl-2-yl-carbamic acid 1-[9-(2-hydroxy-3-fluoro-benzylamino)-nonyl]-piperidin-4-yl ester] are 1.31 nM and 0.705 nM.
Take `O=C(Nc1ccccc1-c1ccccc1)OC1CCN(CCCCCCCCCNCc2cc(Cl)c(Cl)cc2O)CC1` [Example 28, Biphenyl-2-yl-carbamic acid 1-[9-(2-hydroxy-4,5-dichloro-benzylamino)-nonyl]-piperidin-4-yl ester]: the inhibition constant (Ki) in assay [1] amounted to 3.83 nM; in assay [2], 3.59 nM.
On the same counts, the results for `O=C(Nc1ccccc1-c1ccccc1)OC1CCN(CCCCCCCCCNCc2cc(Cl)c(O)c(Cl)c2)CC1` [Example 22, Biphenyl-2-yl-carbamic acid 1-[9-(3,5-dichloro-4-hydroxy-benzylamino)-nonyl]-piperidin-4-yl ester] are 0.865 nM and 0.149 nM.
On the same counts, the results for `O=C(Nc1ccccc1-c1ccccc1)OC1CCN(CCCCCCCCCNC(=O)c2ccc(Cl)c(O)c2)CC1` [Example 19, Biphenyl-2-yl-carbamic acid 1-[9-(4-chloro-3-hydroxy-benzoylamino)-nonyl]-piperidin-4-yl ester] are 1.45 nM and 1.32 nM.
For `O=C(Nc1ccccc1-c1ccccc1)OC1CCN(CCCCCCCCCNCc2cccc(O)c2Cl)CC1` [Example 5, Biphenyl-2-yl-carbamic acid 1-[9-(2-chloro-3-hydroxy-benzylamino)-nonyl]-piperidin-4-yl ester], in that order: 0.521 nM and 0.894 nM.
Regarding `O=C(Nc1ccccc1-c1ccccc1)OC1CCN(CCCCCCCCCNCc2cc(F)cc(Cl)c2O)CC1` [Example 3, Biphenyl-2-yl-carbamic acid 1-[9-(3-chloro-5-fluoro-2-hydroxy-benzylamino)-nonyl]-piperidin-4-yl ester], the figures for the Ki in assay [1] and in assay [2] were 2.33 nM and 0.779 nM, respectively.
For `O=C(Nc1ccccc1-c1ccccc1)OC1CCN(CCCCCCCCCNC(=O)c2cccc(Cl)c2O)CC1` [Example 11, Biphenyl-2-yl-carbamic acid 1-[9-(3-chloro-2-hydroxy-benzoylamino)-nonyl]-piperidin-4-yl ester], in that order: 2.24 nM and 8.15 nM.
For `O=C(Nc1ccccc1-c1ccccc1)OC1CCN(CCCCCCCCCNCc2cc(F)ccc2O)CC1` [Example 35, Biphenyl-2-yl-carbamic acid 1-[9-(2-hydroxy-5-fluoro-benzylamino)-nonyl]-piperidin-4-yl ester], in that order: 1.38 nM and 1.64 nM.
For `O=C(Nc1ccccc1-c1ccccc1)OC1CCN(CCCCCCCCCNCc2cc(Cl)cc(Cl)c2O)CC1` [Example 31, Biphenyl-2-yl-carbamic acid 1-[9-(2-hydroxy-3,5-dichloro-benzylamino)-nonyl]-piperidin-4-yl ester], in that order: 2.47 nM and 0.728 nM.
For the compound `O=C(Nc1ccccc1-c1ccccc1)OC1CCN(CCCCCCCCCNCc2cccc(O)c2F)CC1` [Example 2, Biphenyl-2-yl-carbamic acid 1-[9-(2-fluoro-3-hydroxy-benzylamino)-nonyl]-piperidin-4-yl ester], the inhibitory constant (Ki) in assay [1] came out at 1.05 nM; in assay [2], 0.84 nM.
For `O=C(Nc1ccccc1-c1ccccc1)OC1CCN(CCCCCCCCCNCc2ccc(O)c(F)c2)CC1` [Example 38, Biphenyl-2-yl-carbamic acid 1-[9-(4-hydroxy-3-fluoro-benzylamino)-nonyl]-piperidin-4-yl ester], in that order: 0.175 nM and 1.48 nM.
For `CN(CCCCCCCCCN1CCC(OC(=O)Nc2ccccc2-c2ccccc2)CC1)C(=O)c1ccc(F)c(O)c1` [Example 16, Biphenyl-2-yl-carbamic acid 1-{9-[(4-fluoro-3-hydroxy-benzoyl)-methyl-amino]-nonyl}-piperidin-4-yl ester], in that order: 2.98 nM and 0.389 nM.
`O=C(Nc1ccccc1-c1ccccc1)OC1CCN(CCCCCCCCCNCc2cc(F)c(O)c(F)c2)CC1` [Example 27, Biphenyl-2-yl-carbamic acid 1-[9-(3,5-difluoro-4-hydroxy-benzylamino)-nonyl]-piperidin-4-yl ester]: the figures for the inhibition constant Ki in assay [1] and in assay [2] were 1.1 nM and 0.208 nM, respectively.
On the same counts, the results for `CN(CCCCCCCCCN1CCC(OC(=O)Nc2ccccc2-c2ccccc2)CC1)C(=O)c1ccc(O)c(Cl)c1` [Example 17, Biphenyl-2-yl-carbamic acid 1-{9-[(3-chloro-4-hydroxy-benzoyl)-methyl-amino]-nonyl}-piperidin-4-yl ester] are 2.15 nM and 0.25 nM.
On the same counts, the results for `O=C(Nc1ccccc1-c1ccccc1)OC1CCN(CCCCCCCCCNC(=O)c2ccc(O)c(F)c2F)CC1` [Example 23, Biphenyl-2-yl-carbamic acid 1-[9-(2,3-difluoro-4-hydroxy-benzoylamino)-nonyl]-piperidin-4-yl ester] are 2.38 nM and 0.276 nM.
On the same counts, the results for `O=C(Nc1ccccc1-c1ccccc1)OC1CCN(CCCCCCCCCNC(=O)c2cccc(F)c2O)CC1` [Example 8, Biphenyl-2-yl-carbamic acid 1-[9-(3-fluoro-2-hydroxy-benzoylamino)-nonyl]-piperidin-4-yl ester] are 4.81 nM and 2.68 nM.
